Test results reported in patent publication US20120269793A1, “PHYTOESTROGENIC FORMULATIONS FOR ALLEVIATION OR PREVENTION OF HAIR LOSS” (University of Southern California, priority 2010, published 2012).
Each block holds one compound with its values, some of them ahead of it.

Assays:
ERα [1] = target: T1, ERα (Homo sapiens, UniProt P03372); assay: fluorescent polarization competitive binding assay, ERα; set-up: purchased PanVera Corp; host or cells: baculovirus expression; settings: for IC50: class symbol NC
T1 sequence (P03372 1-595): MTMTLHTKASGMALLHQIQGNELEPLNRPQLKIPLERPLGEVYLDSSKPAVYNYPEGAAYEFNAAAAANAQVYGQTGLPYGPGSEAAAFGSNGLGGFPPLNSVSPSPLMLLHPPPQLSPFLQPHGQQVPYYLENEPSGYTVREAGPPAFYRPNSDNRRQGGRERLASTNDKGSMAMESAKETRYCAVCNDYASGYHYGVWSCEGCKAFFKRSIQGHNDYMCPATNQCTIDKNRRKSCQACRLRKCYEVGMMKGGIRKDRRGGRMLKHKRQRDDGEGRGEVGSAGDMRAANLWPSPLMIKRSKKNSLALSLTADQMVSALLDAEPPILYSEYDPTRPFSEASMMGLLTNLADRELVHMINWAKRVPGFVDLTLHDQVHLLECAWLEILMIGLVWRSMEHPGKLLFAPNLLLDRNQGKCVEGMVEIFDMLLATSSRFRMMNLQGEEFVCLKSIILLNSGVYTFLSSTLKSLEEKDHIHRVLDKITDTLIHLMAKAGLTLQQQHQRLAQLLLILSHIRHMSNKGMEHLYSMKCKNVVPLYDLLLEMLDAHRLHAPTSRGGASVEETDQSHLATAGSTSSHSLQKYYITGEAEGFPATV

ERα [2] = target: T1, ERα; settings: cited from earlier work
ERβ [3] = target: T2, ERβ (Homo sapiens, UniProt Q92731); settings: cited from earlier work
Target sequence in this assay (Q92731 whole entry, species assumed): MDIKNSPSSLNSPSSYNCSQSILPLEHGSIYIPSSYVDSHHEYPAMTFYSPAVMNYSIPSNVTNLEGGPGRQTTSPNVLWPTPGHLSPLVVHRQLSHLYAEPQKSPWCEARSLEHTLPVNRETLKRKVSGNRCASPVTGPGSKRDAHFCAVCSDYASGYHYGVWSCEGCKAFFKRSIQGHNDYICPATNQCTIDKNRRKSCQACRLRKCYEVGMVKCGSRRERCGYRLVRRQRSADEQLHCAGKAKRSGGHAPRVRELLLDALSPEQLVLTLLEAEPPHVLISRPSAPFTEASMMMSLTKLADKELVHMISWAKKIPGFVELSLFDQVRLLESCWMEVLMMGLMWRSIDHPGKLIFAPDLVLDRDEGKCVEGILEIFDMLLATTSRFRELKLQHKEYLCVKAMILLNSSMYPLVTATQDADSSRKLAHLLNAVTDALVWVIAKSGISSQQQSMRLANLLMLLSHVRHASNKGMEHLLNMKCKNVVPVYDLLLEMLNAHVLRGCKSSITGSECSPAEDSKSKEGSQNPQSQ

ERβ [4] = target: T2, ERβ; assay: fluorescent polarization competitive binding assay, ERβ; set-up: purchased PanVera Corp; host or cells: baculovirus expression; settings: for IC50: class symbol NC
Target sequence in this assay (Q92731 whole entry): as the sequence (Q92731 whole entry, species assumed) above

IC50 (ERα [1]): > 1000 µM
SMILES: Oc1ccc(C2COc3cc(O)ccc3C2)cc1 (stereo not shown) [Compd 2]

SMILES: Oc1ccc([C@H]2COc3cc(O)ccc3C2)cc1 [S-equol]
binding affinity for ERα compared to ERβ (ERα [2]): 10 fold less
relative binding affinity for ERα compared to 17β-estradiol (ERα [2]): 49.2 fold less
Kd (ERβ [3]): 0.0007 µM
binding to ERβ relative to 17β-estradiol (ERβ [3]): approximately 20%

binding to ERβ / the receptor (in words) (ERβ [4]): either very weak or no binding
IC50 (ERβ [4]): > 1000 µM
IC50 (ERα [1]): > 1000 µM
SMILES: Cc1oc2cc(O)ccc2c(=O)c1-c1cc2ccccc2o1 [Compd 4]

binding to ERβ / the receptor (in words) (ERβ [4]): either very weak or no binding
IC50 (ERβ [4]): > 1000 µM
IC50 (ERα [1]): > 1000 µM
SMILES: O=c1oc2cc(OCc3cccc(O)c3)ccc2c2c1CCC2 [Compd 10]

binding to ERβ / the receptor (in words) (ERβ [4]): either very weak or no binding
SMILES: O=c1nc2n(c3cc4ccccc4cc13)Cc1ccccc1-2 [Compd 12]

SMILES: Oc1ccc([C@@H]2COc3cc(O)ccc3C2)cc1 [R-equol]
relative binding affinity for ERα compared to 17β-estradiol (ERα [2]): 210.6 fold less
binding to ERβ, R-equol enantiomer, fold less (ERβ [3]): approximately 100 fold less

SMILES: CC(=O)[C@H]1CC[C@H]2[C@@H]3CCC4=CC(=O)CC[C@]4(C)[C@H]3CC[C@]12C [progesterone, reference compound]
binding to ERβ / the receptor (in words) (ERβ [4]): does not bind
binding to ERα (in words) (ERα [1]): does not bind
